In the NIST ThermoML archive (doi:10.1021/je900048r):
Numbers after ± are expanded uncertainties.

Assay: xn = mol fraction of the nth substance listed
Conditions: Liquid, Other PVT measurement

CCCCn1cc[n+](C)c1.F[B-](F)(F)F [1-butyl-3-methylimidazolium tetrafluoroborate] + CC#N
mass density [kg/m3]
Conditions	x1 = 0.1	x1 = 0.2	x1 = 0.3	x1 = 0.4	x1 = 0.5	x1 = 0.6	x1 = 0.6999	x1 = 0.7998	x1 = 0.8993	x1 = 1
313.15 K, 200 kPa	893 ± 9	980 ± 10	1040 ± 10	1077 ± 11	1105 ± 11	1127 ± 11	1146 ± 12	1161 ± 12	1175 ± 12	1185 ± 12
313.15 K, 600 kPa	894 ± 9	981 ± 10	1041 ± 10	1078 ± 11	1106 ± 11	1127 ± 11	1147 ± 12	1162 ± 12	1175 ± 12	1186 ± 12
313.15 K, 1000 kPa	895 ± 9	982 ± 10	1041 ± 10	1078 ± 11	1106 ± 11	1128 ± 11	1147 ± 12	1162 ± 12	1175 ± 12	1186 ± 12
313.15 K, 1400 kPa	895 ± 9	982 ± 10	1041 ± 10	1079 ± 11	1106 ± 11	1128 ± 11	1147 ± 12	1162 ± 12	1175 ± 12	1186 ± 12
313.15 K, 1800 kPa	895 ± 9	983 ± 10	1041 ± 10	1079 ± 11	1106 ± 11	1128 ± 11	1147 ± 12	1163 ± 12	1176 ± 12	1187 ± 12
313.15 K, 2000 kPa	896 ± 9	983 ± 10	1042 ± 10	1079 ± 11	1107 ± 11	1129 ± 11	1148 ± 12	1163 ± 12	1176 ± 12	1187 ± 12
353.15 K, 200 kPa	857 ± 9	947 ± 10	1008 ± 10	1047 ± 10	1076 ± 11	1098 ± 11	1118 ± 11	1134 ± 11	1148 ± 12	1159 ± 12
353.15 K, 600 kPa	858 ± 9	948 ± 10	1009 ± 10	1047 ± 10	1076 ± 11	1099 ± 11	1119 ± 11	1134 ± 11	1148 ± 12	1160 ± 12
353.15 K, 1000 kPa	858 ± 9	948 ± 10	1009 ± 10	1048 ± 11	1077 ± 11	1099 ± 11	1119 ± 11	1134 ± 11	1148 ± 12	1160 ± 12
353.15 K, 1400 kPa	858 ± 9	948 ± 10	1010 ± 10	1048 ± 11	1077 ± 11	1100 ± 11	1119 ± 11	1134 ± 11	1149 ± 12	1160 ± 12
353.15 K, 1800 kPa	859 ± 9	949 ± 10	1010 ± 10	1049 ± 11	1077 ± 11	1100 ± 11	1120 ± 11	1134 ± 11	1149 ± 12	1161 ± 12
353.15 K, 2000 kPa	859 ± 9	949 ± 10	1010 ± 10	1049 ± 11	1078 ± 11	1100 ± 11	1120 ± 11	1135 ± 11	1149 ± 12	1161 ± 12
393.15 K, 600 kPa	820 ± 8	914 ± 9	978 ± 10	1018 ± 10	1048 ± 11	1072 ± 11	1092 ± 11	1108 ± 11	1123 ± 11	1135 ± 11
393.15 K, 1000 kPa	821 ± 8	915 ± 9	978 ± 10	1018 ± 10	1048 ± 11	1072 ± 11	1092 ± 11	1108 ± 11	1123 ± 11	1135 ± 11
393.15 K, 1400 kPa	821 ± 8	915 ± 9	979 ± 10	1019 ± 10	1048 ± 11	1073 ± 11	1092 ± 11	1108 ± 11	1123 ± 11	1135 ± 11
393.15 K, 1800 kPa	822 ± 8	915 ± 9	979 ± 10	1019 ± 10	1049 ± 11	1073 ± 11	1093 ± 11	1108 ± 11	1123 ± 11	1136 ± 11
393.15 K, 2000 kPa	822 ± 8	916 ± 9	979 ± 10	1019 ± 10	1049 ± 11	1073 ± 11	1093 ± 11	1108 ± 11	1124 ± 11	1136 ± 11
433.15 K, 1000 kPa	781 ± 8	881 ± 9	947 ± 9	989 ± 10	1021 ± 10	1045 ± 10	1066 ± 11	1082 ± 11	1098 ± 11	1112 ± 11
433.15 K, 1400 kPa	782 ± 8	882 ± 9	948 ± 10	990 ± 10	1021 ± 10	1045 ± 10	1066 ± 11	1082 ± 11	1098 ± 11	1112 ± 11
433.15 K, 1800 kPa	783 ± 8	882 ± 9	948 ± 10	990 ± 10	1021 ± 10	1046 ± 10	1067 ± 11	1083 ± 11	1098 ± 11	1113 ± 11
433.15 K, 2000 kPa	783 ± 8	882 ± 9	949 ± 10	990 ± 10	1021 ± 10	1046 ± 10	1067 ± 11	1083 ± 11	1099 ± 11	1113 ± 11
473.15 K, 1800 kPa	741 ± 7	847 ± 9	917 ± 9	960 ± 10	993 ± 10	1018 ± 10	1040 ± 10	1057 ± 11	1072 ± 11	1086 ± 11
473.15 K, 2000 kPa	742 ± 7	848 ± 9	917 ± 9	960 ± 10	993 ± 10	1019 ± 10	1041 ± 10	1057 ± 11	1073 ± 11	1087 ± 11

CCCCn1cc[n+](C)c1.F[B-](F)(F)F [1-butyl-3-methylimidazolium tetrafluoroborate] + c1ccccc1
mass density [kg/m3]
Conditions	x1 = 0.5	x1 = 0.5999	x1 = 0.7001	x1 = 0.8	x1 = 0.8999	x1 = 1
313.15 K, 200 kPa	1111 ± 11	1129 ± 11	1145 ± 12	1158 ± 12	1172 ± 12	1185 ± 12
313.15 K, 600 kPa	1111 ± 11	1130 ± 11	1145 ± 12	1158 ± 12	1172 ± 12	1186 ± 12
313.15 K, 1000 kPa	1111 ± 11	1130 ± 11	1146 ± 12	1158 ± 12	1173 ± 12	1186 ± 12
313.15 K, 1400 kPa	1111 ± 11	1131 ± 11	1146 ± 12	1159 ± 12	1173 ± 12	1186 ± 12
313.15 K, 1800 kPa	1111 ± 11	1131 ± 11	1147 ± 12	1159 ± 12	1173 ± 12	1187 ± 12
313.15 K, 2000 kPa	1111 ± 11	1132 ± 11	1147 ± 12	1159 ± 12	1173 ± 12	1187 ± 12
353.15 K, 200 kPa	1082 ± 11	1102 ± 11	1118 ± 11	1131 ± 11	1145 ± 12	1159 ± 12
353.15 K, 600 kPa	1082 ± 11	1103 ± 11	1118 ± 11	1131 ± 11	1145 ± 12	1160 ± 12
353.15 K, 1000 kPa	1083 ± 11	1103 ± 11	1118 ± 11	1131 ± 11	1145 ± 12	1160 ± 12
353.15 K, 1400 kPa	1083 ± 11	1103 ± 11	1118 ± 11	1132 ± 11	1146 ± 12	1160 ± 12
353.15 K, 1800 kPa	1084 ± 11	1104 ± 11	1119 ± 11	1132 ± 11	1146 ± 12	1161 ± 12
353.15 K, 2000 kPa	1084 ± 11	1104 ± 11	1119 ± 11	1132 ± 11	1146 ± 12	1161 ± 12
393.15 K, 600 kPa	1055 ± 11	1076 ± 11	1092 ± 11	1106 ± 11	1120 ± 11	1135 ± 11
393.15 K, 1000 kPa	1055 ± 11	1076 ± 11	1092 ± 11	1106 ± 11	1120 ± 11	1135 ± 11
393.15 K, 1400 kPa	1055 ± 11	1077 ± 11	1092 ± 11	1106 ± 11	1120 ± 11	1135 ± 11
393.15 K, 1800 kPa	1056 ± 11	1077 ± 11	1092 ± 11	1106 ± 11	1121 ± 11	1136 ± 11
393.15 K, 2000 kPa	1056 ± 11	1078 ± 11	1093 ± 11	1106 ± 11	1121 ± 11	1136 ± 11
433.15 K, 1400 kPa	1028 ± 10	1050 ± 11	1066 ± 11	1080 ± 11	1096 ± 11	1112 ± 11
433.15 K, 1800 kPa	1029 ± 10	1050 ± 11	1067 ± 11	1081 ± 11	1096 ± 11	1113 ± 11
433.15 K, 2000 kPa	1029 ± 10	1051 ± 11	1067 ± 11	1081 ± 11	1096 ± 11	1113 ± 11
